In patent US9364479B2, “Use of a receptor-type kinase modulator for treating polycystic kidney disease” (SYMPHONY EVOLUTION, INC., priority 2010, dated 2016):
Read-outs that look alike come from different tables or passages of the source. Marks after values point to notes of the source that are not given here.

Tests used:
PCK rat = assay type: in vivo; conditions: for CT-CI / Creatinine / Kidney/Body weight: PN Day 90
Description: The phenotype of the PCK rat is different from that of humans in that it has a slower disease progression and slower decline in renal function. The PCK rats came from a mutated colony of Sprague-Dawley rats from Fujita Health University and were housed at the Medical College of Wisconsin.
Two hours after last injection on PN90 the rats were sacrificed and the kidneys and liver were removed and weighed. Post-mortem measurements included KW/BW ratio and cystic index (CI) using renal sections from the cortex, medulla, and papilla. CT-CI was then determined from cystic index which was based on renal cyst size at 15 day intervals from PN0 to PN135. Renal function was assessed with BUN and creatinine levels from cardiac puncture.

Src = biological target: T1, Src (Homo sapiens, UniProt P12931); experiment: Chemiluminescent kinase assay; assay type: biochemical; conditions: ATP at Km
T1 construct: His (N); purchased Upstate Biotech
T1 sequence (P12931 whole entry): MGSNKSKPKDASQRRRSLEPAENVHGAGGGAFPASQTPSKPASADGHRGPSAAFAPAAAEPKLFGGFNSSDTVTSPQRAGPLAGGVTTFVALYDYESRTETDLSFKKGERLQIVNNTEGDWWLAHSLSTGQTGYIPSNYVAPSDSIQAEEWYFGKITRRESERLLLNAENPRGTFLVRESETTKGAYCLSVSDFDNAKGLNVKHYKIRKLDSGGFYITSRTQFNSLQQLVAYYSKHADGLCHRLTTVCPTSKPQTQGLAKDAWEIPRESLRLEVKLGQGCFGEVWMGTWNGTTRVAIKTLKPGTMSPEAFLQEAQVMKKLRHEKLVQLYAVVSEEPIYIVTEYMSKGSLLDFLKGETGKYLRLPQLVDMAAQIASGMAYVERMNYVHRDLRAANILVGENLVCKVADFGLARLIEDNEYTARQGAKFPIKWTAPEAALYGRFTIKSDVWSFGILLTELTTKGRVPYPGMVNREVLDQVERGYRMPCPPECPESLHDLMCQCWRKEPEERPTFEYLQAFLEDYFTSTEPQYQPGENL

EphB4 = biological target: T2, EphB4 (Homo sapiens, UniProt P54760); experiment: EphB4 autophosphorylation ELISA, EphB4/Hep3B cells; assay type: cell-based; conditions: read-out: Cellular IC50, autophosphorylation
T2 construct: expressed in transfected cells; host or cells: Hep3B
T2 sequence (P54760 16-987): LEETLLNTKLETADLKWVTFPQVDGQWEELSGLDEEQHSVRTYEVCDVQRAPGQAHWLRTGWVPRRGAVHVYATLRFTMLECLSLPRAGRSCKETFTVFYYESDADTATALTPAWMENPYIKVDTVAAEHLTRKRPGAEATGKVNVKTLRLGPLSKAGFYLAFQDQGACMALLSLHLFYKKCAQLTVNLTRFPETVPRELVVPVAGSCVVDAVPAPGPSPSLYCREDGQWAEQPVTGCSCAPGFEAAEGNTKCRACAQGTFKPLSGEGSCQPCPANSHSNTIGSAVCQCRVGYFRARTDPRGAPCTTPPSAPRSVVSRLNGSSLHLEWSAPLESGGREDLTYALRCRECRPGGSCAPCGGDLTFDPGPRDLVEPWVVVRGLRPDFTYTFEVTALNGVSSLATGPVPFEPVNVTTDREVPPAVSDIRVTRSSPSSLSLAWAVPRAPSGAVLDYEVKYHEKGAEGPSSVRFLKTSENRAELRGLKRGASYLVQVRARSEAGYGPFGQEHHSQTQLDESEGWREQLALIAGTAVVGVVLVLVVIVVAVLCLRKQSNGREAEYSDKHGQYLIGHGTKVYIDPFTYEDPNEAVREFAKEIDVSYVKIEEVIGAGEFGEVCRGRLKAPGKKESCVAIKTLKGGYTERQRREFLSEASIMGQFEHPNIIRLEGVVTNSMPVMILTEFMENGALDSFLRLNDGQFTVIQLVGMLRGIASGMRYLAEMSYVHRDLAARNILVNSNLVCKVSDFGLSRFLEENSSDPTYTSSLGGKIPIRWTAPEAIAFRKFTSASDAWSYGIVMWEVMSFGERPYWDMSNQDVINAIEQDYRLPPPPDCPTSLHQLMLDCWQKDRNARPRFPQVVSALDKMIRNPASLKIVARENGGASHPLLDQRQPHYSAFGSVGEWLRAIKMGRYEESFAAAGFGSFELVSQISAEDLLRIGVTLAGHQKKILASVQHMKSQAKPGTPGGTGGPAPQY
Protocol: The EphB4 autophosphorylation ELISA utilized EphB4/Hep3B cells. Cells were seeded at 2×10^4 cells/well onto 96-well microtiter plates (Costar 3904), in MEME (Cellgro) containing 10% FBS (Heat-Inactivated, Hyclone), 1% penicillin-streptomycin (Cellgro) and 450 μg/ml G418 (Invitrogen). The cells were then incubated at 37° C., 5% CO2 for 24 h. Growth media was replaced with serum-free MEME and cells were incubated for an additional 16 h. […] Negative control wells were not treated with growth factor. Following treatment, media was removed, the cell monolayer washed with cold PBS and immediately lysed with cold lysis buffer (50 mM Tris-HCl, pH 8.0, 200 mM NaCl, 0.5% NP-40, 0.2% sodium deoxcholate, 1 mM EDTA, 50 mM NaF, 1 mM sodium pyrophosphate, 1 mM sodium orthovanadate, 2 mM phenylmethylsulfonyl fluoride, 10 μg/ml aprotinin, 5 μg/ml leupeptin and 5 μg/ml pepstatin A). Lysates were centrifuged and incubated in blocked (1% BSA) high-binding 96-well plates (Costar 3925) coated with anti-mouse EphB4 (2.5 μg/ml, R&D Systems). Plates were then incubated with HRP-conjugated anti-phosphotyrosine cocktail (1:10,000, Zymed Laboratories, Inc) followed by the addition of a luminol-based substrate solution. Plates were read using a Victor spectrophotometer (Wallac).

H1975 xenografts = experiment: Immunohistochemical analysis of H1975 xenografts (TUNEL, CD31, Ki67); assay type: in vivo, mouse; conditions: 14-day dosing
Protocol: (§1) For immunohistochemical analysis of H1975, MDA-MB-231 and other xenografts, tumors were excised after euthanasia and fixed in zinc fixative (BD Biosciences) for 48 h before being processed into paraffin blocks. Serial sections at 5 μm were obtained from the area of largest possible surface for each tumor and stained using standard methods. The following antibodies were used: Ki67 (SP6; Labvision), CD31 (MECA.32; BD Biosciences), pERK^Thr202/Tyr204 (phospho-p44/42 mitogen-activated protein kinase; Cell Signaling Technology), pAKT^Ser473 (Cell Signaling Technology), and pEGFR^Tyr1068 (Cell Signaling Technology). For immunofluorescent staining, sections were then incubated with Alexa 594-conjugated goat anti-rabbit secondary antibody (Invitrogen) and mounted in Fluorescent Mounting Medium (DAKO) containing 4′,6-diamidino-2-phenylindole (Molecular Probes) as a nuclear counterstain. Fluorescent staining was visualized using a Zeiss Axiolmager and digitally captured using a Zeiss high-resolution camera coupled to AxioVision image analysis software. Two to three nonoverlapping representative fields were captured at ×200 or ×400 magnification depending on histologic readout and quantified using the integrated morphometric analysis functions in Metamorph software (Universal Imaging Corp.). Apoptotic cells were detected using terminal deoxynucleotidyl transferase-mediated dUTP nick end labeling in situ cell death detection kit according to the manufacturer's instructions (Roche Diagnostics GmbH).
CD31-positive tumor vessels, Ki67-positive proliferating cells, and pERK staining in each tumor section were identified and quantified using the integrated morphometric analysis functions in the ACIS automatic cellular imaging system (Clarient, Inc.) and reviewed by a blinded observer. Number of CD31-positive vessels were identified across 5 to 10 randomly chosen fields of equal size at ×100 magnification in viable tumor tissue and calculated as number of vessels per square millimeter for each tumor, averaged for each treatment group, and compared with vehicle-treated controls. Percentage Ki67-positive cells were calculated as the ratio between Ki67-positive cells divided by the total number of cells identified across 5 to 10 randomly chosen fields of equal size in viable tumor tissue. The results for each tumor and treatment group were averaged and compared with vehicle-treated controls. The level of pERK staining was determined as described above and calculated as the ratio of antibody staining divided by the total number of cells identified, averaged for each treatment group, and compared with vehicle-treated controls.
(§2) Results are presented as mean±SD or SE as indicated for each graph or table. For IC50 comparison in the A431 cell viability experiment, two sample Student's t tests were applied to determine P values for each IC50 pair assuming that the random fluctuations of replicates around the dose-response curve are distributed [log]normally with the individual replicates used as the ‘sample size’ for the t test (nine point dose response done in triplicate). For statistical analysis of immunohistochemical results from in vivo studies, two-tailed Student's t test analysis and Bonferroni correction were done to identify significant differences compared with vehicle control group (multiple use of a single vehicle control group) with a cumulative minimal requirement of P<0.05.

Phospho AKT Ser473 = experiment: Immunohistochemical analysis of phosphorylation in H1975 xenografts; assay type: in vivo, mouse; conditions: 14-day dosing
Protocol: as §1, §2

p-Y-VEGFR2/KDR = biological target: T3, p-Y-VEGFR2/KDR (Mus musculus, UniProt P35918); experiment: In vivo receptor phosphorylation, murine lung; conditions: read-out: Estimated IC50 (plasma concentration)
T3 construct: from tissue; host or cells: murine lung
T3 sequence (P35918 20-1345): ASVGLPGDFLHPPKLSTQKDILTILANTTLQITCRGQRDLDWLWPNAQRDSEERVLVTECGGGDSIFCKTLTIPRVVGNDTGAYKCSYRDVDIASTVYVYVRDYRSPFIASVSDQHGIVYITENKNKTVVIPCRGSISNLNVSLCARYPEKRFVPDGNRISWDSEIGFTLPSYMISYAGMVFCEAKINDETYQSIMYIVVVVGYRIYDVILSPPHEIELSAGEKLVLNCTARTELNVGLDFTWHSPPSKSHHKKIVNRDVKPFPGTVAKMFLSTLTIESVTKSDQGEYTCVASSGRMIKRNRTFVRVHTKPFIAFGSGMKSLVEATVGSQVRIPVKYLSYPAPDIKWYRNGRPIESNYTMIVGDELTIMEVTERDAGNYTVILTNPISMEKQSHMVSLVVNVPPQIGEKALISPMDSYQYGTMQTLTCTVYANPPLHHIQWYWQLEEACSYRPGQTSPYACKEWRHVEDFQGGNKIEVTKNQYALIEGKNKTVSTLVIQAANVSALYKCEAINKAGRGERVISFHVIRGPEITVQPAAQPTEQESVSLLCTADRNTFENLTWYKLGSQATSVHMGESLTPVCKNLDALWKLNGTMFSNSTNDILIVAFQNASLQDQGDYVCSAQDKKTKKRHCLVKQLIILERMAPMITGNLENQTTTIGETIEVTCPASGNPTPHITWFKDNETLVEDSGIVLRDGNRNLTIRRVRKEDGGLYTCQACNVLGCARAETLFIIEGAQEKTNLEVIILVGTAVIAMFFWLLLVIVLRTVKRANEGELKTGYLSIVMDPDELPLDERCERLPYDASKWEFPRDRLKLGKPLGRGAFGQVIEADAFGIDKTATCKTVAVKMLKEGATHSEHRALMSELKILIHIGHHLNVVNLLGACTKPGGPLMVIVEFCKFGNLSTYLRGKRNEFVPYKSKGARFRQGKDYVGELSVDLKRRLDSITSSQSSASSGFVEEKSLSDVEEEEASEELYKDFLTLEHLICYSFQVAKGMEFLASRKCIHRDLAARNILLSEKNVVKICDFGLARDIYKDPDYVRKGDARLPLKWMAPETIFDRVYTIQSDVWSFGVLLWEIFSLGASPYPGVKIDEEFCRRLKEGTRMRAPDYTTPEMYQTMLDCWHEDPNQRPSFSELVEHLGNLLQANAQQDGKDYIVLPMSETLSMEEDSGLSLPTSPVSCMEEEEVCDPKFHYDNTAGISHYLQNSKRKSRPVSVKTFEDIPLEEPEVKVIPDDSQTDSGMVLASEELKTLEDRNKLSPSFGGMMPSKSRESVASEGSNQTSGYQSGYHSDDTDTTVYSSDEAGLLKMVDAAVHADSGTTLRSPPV

[1] = 7.5 mg/kg/day, PN Day 90, 7.5 mg/kg/day
[2] = 7.5 mg/kg/day, PN Day 90, listed as PRIM-001, 7.5 mg/kg/day
[3] = 15 mg/kg/day, PN Day 90, 15 mg/kg/day
[4] = 15 mg/kg/day, PN Day 90, listed as PRIM-001, 15 mg/kg/day

## COc1cc2c(Nc3ccc(Cl)c(Cl)c3F)ncnc2cc1OC[C@@H]1C[C@@H]2CN(C)C[C@@H]2C1 [XL-647, N-(3,4-dichloro-2-fluorophenyl)-7-({[(3aR,5r,6aS)-2-methyloctahydrocyclopenta[c]pyrrol-5-yl]methyl}oxy)-6-(methyloxy)quinazolin-4-amine]
PCK rat; 7.5 mg/kg q.d.
  decrease of BUN level: 19.2%
  decrease of kidney weight: 13.4%
  reduction of CT-CI: 19.6%
PCK rat; 7.5 mg/kg/day
  CT-CI: 5.63
  Creatinine: 0.48 ± 0.09 mg/dL
  Kidney/Body weight: 1.5%
PCK rat; [1]
  BUN: 27.50 ± 3.74 mg/dL
  Kidney Weight: 5.77 ± 0.47 g
PCK rat; [2]
  BUN: 27.50 ± 3.74 mg/dL
  Kidney Weight: 5.77 g
PCK rat; 15 mg/kg q.d.
  decrease of BUN level: 28.8%
  decrease of kidney weight: 26.0%
  reduction of CT-CI: 35.7%
PCK rat; 15 mg/kg/day
  CT-CI: 4.50
  Creatinine: 0.46 ± 0.07 mg/dL
  Kidney/Body weight: 1.31%
PCK rat; [3]
  BUN: 24.25 ± 4.3 mg/dL
  Kidney Weight: 4.93 ± 0.42 g
PCK rat; [4]
  BUN: 24.25 ± 4.30 mg/dL
  Kidney Weight: 4.93 g
Src
  IC50: 10.3 ± 2 nM
EphB4
  IC50: 3 nM
H1975 xenografts; 10 mg/kg
  CD31 Analysis % Reduction: 30.0^b %
  CD31 Analysis MVC: 44
  Ki67 Expression % Cells: 27%
  Ki67 Expression % Reduction: 23.2^b %
  TUNEL % Cells: 6%
H1975 xenografts; 30 mg/kg
  CD31 Analysis % Reduction: 46.1^a %
  CD31 Analysis MVC: 34
  Ki67 Expression % Cells: 20%
  Ki67 Expression % Reduction: 41.9^a %
  TUNEL % Cells: 11%
H1975 xenografts; 100 mg/kg
  CD31 Analysis % Reduction: 69.6^a %
  CD31 Analysis MVC: 19
  Ki67 Expression % Cells: 8.9%
  Ki67 Expression % Reduction: 74.6^a %
  TUNEL % Cells: 15%
Phospho AKT Ser473; 10 mg/kg
  Phospho AKT Ser473 % Cells: 19 ± 2.1%
  Phospho AKT Ser473 % Reduction: 53.6^a %
Phospho AKT Ser473; 30 mg/kg
  Phospho AKT Ser473 % Cells: 12 ± 1.9%
  Phospho AKT Ser473 % Reduction: 72.4^a %
Phospho AKT Ser473; 100 mg/kg
  Phospho AKT Ser473 % Cells: 11 ± 1.9%
  Phospho AKT Ser473 % Reduction: 74.4^a %
p-Y-VEGFR2/KDR
  IC50: 1200 nM
